PubChem BioAssay (NCI)
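Grown in 96-well plates, cells were treated for 48 hours with each compound at five concentrations. Insufficient inhibition: endpoint recorded as highest concentration tested. At the TGI there is no net growth.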

Assays:
MCF7 breast = experiment: inhibition of tumour cell growth, NCI panel, 48 h
SF-295 CNS = experiment: inhibition of tumour cell growth, NCI panel, 48 h

With `COC(=O)c1nc(-c2ccc3c(n2)C(=O)C(N)=C(OC)C3=O)c(N)c(-c2ccc(OC)c(OC)c2O)c1C` the TGI (MCF7 breast) was 1.66 µM and the TGI (SF-295 CNS) was 2.02 µM.
